For data set [1], the system named is HIV-IIIb. Description: Test A: Antiviral Assay in MT4 Cells. Format: cell-based, HIV-1. Conditions: Human immunodeficiency virus 1, IIIB, MT4, 120 h, read-out: % inhibition at 3 μM. How it is done:
Test A: Antiviral Assay in MT4 Cells
For the antiviral assay, 40 μL of 1× test concentration of 3-fold serially diluted compound in culture medium with 10% FBS was added to each well of a 384-well plate (10 concentrations) in quadruplicate. MT-4 cells were next mixed with HIV-IIIb at an m.o.i of 0.003 for 1 hour, after which time 35 μL of virus/cell mixture (2000 cells) was immediately added to each well containing 40 μL of diluted compound. The plates were then incubated at 37° C. for 5 days. After 5 days of incubation, 25 μl of 2× concentrated CellTiter-Glo™ Reagent (catalog #G7571, Promega Biosciences, Inc., Madison, Wis.) was added to each well containing MT-4 cells. Cell lysis was carried out by incubating at room temperature for 10 min and then chemiluminescence was read.

A short description of data set [2]: Test B: Cytotoxicity Assay (protocol of Test A, uninfected cells). It is filed as cell-based. The settings on record: human, uninfected MT-4 cells, CellTiter-Glo. How it is done:
Test B: Cytotoxicity Assay Compound cytotoxicity and the corresponding CC50 values was determined using the same protocol as described in the antiviral assay (Test A) except that uninfected cells were used.

Molecules are shown by their SMILES.

For orientation: inhibition means the drop in the measured response relative to a control, in per cent. The term CC50 denotes the concentration at which the toxic effect on the cells reaches its halfway point. As for `Cc1nc([C@H](Cc2cc(F)cc(F)c2)NC(=O)Cn2nc(C(F)F)c3c2C(F)(F)[C@@H]2C[C@H]32)c(-c2cccc3c(NS(C)(=O)=O)nn(C)c23)cc1N` [Compound 44, N—((S)-1-(5-amino-6-methyl-3-(1-methyl-3-(methylsulfonamido)-1H-indazol-7-yl)pyridin-2-yl)-2-(3,5-difluorophenyl)ethyl)-2-((3bS,4aR)-3-(difluoromethyl)-5,5-difluoro-3b,4,4a,5-tetrahydro-1H-cyclopropa[3,4]cyclopenta[1,2-c]pyrazol-1-yl)acetamide], the inhibition at 3 µM in data set [1] is 107%. The compound also showed a CC50 at 5 days in data set [2] of 32 µM.
Turning to `CSc1cnc([C@H](Cc2cc(F)cc(F)c2)NC(=O)Cn2nc(C(F)F)c3c2C(F)(F)[C@@H]2C[C@H]32)c(-c2cccc3c(NS(C)(=O)=O)nn(C)c23)n1` [Compound 55G, 2-((3bS,4aR)-3-(difluoromethyl)-5,5-difluoro-3b,4,4a,5-tetrahydro-1H-cyclopropa[3,4]cyclopenta[1,2-c]pyrazol-1-yl)-N—((S)-2-(3,5-difluorophenyl)-1-(3-(1-methyl-3-(methylsulfonamido)-1H-indazol-7-yl)-5-(methylthio)pyrazin-2-yl)ethyl)acetamide], in data set [1], the inhibition at 3 µM is 107%. Further, half-maximal cytotoxicity in data set [2] (CC50 at 5 days) was put at 22.1 µM.
In the same order, the values of `Cn1nc(NS(C)(=O)=O)c2cccc(-c3cc(N)cnc3[C@H](Cc3cc(F)cc(F)c3)NC(=O)Cn3nc(C(F)(F)F)c4c3C(F)(F)[C@@H]3C[C@H]43)c21` [Compound 35, N—((S)-1-(5-amino-3-(1-methyl-3-(methylsulfonamido)-1H-indazol-7-yl)pyridin-2-yl)-2-(3,5-difluorophenyl)ethyl)-2-((3bS,4aR)-5,5-difluoro-3-(trifluoromethyl)-3b,4,4a,5-tetrahydro-1H-cyclopropa[3,4]cyclopenta[1,2-c]pyrazol-1-yl)acetamide] are 93% and 23.9 µM.
With `Cn1nc(NS(C)(=O)=O)c2c(Cl)ccc(-c3cc(N)c(Cl)nc3[C@H](Cc3cc(F)cc(F)c3)NC(=O)Cn3nc(C(F)(F)F)c4c3C(F)(F)[C@@H]3C[C@H]43)c21` [Compound 54, N—((S)-1-(5-amino-6-chloro-3-(4-chloro-1-methyl-3-(methylsulfonamido)-1H-indazol-7-yl)pyridin-2-yl)-2-(3,5-difluorophenyl)ethyl)-2-((3bS,4aR)-5,5-difluoro-3-(trifluoromethyl)-3b,4,4a,5-tetrahydro-1H-cyclopropa[3,4]cyclopenta[1,2-c]pyrazol-1-yl)acetamide], in data set [1], the inhibition at 3 µM was determined as 92%. In data set [2], this compound registered a 50% cytotoxic concentration (CC50) at 5 days of 12.1 µM.
The matching figures for `Cn1nc(NS(C)(=O)=O)c2c(Cl)ccc(-c3cc(N)cnc3[C@H](Cc3cc(F)cc(F)c3)NC(=O)Cn3nc(C(F)F)c4c3C(F)(F)[C@@H]3C[C@H]43)c21` [Compound 49C, N—((S)-1-(5-amino-3-(4-chloro-1-methyl-3-(methylsulfonamido)-1H-indazol-7-yl)pyridin-2-yl)-2-(3,5-difluorophenyl)ethyl)-2-((3bS,4aR)-3-(difluoromethyl)-5,5-difluoro-3b,4,4a,5-tetrahydro-1H-cyclopropa[3,4]cyclopenta[1,2-c]pyrazol-1-yl)acetamide]: 93% and 28.1 µM.
The matching figures for `Cn1nc(NS(C)(=O)=O)c2cccc(-c3cnc(N4CC(C)(O)C4)nc3[C@H](Cc3cc(F)cc(F)c3)NC(=O)Cn3nc(C(F)(F)F)c4c3C(F)(F)[C@@H]3C[C@H]43)c21` [Compound 36C, 2-((3bS,4aR)-5,5-difluoro-3-(trifluoromethyl)-3b,4,4a,5-tetrahydro-1H-cyclopropa[3,4]cyclopenta[1,2-c]pyrazol-1-yl)-N—((S)-2-(3,5-difluorophenyl)-1-(2-(3-hydroxy-3-methylazetidin-1-yl)-5-(1-methyl-3-(methylsulfonamido)-1H-indazol-7-yl)pyrimidin-4-yl)ethyl)acetamide]: 94% and 32.2 µM.
In the same order, the values of `Cn1nc(NS(C)(=O)=O)c2cccc(-c3nc(N)cnc3C(Cc3cc(F)cc(F)c3)NC(=O)Cn3nc(C(F)F)c4c3C(F)(F)[C@@H]3C[C@H]43)c21` (stereo partly drawn) [Compound 61, N-(1-(5-amino-3-(1-methyl-3-(methylsulfonamido)-1H-indazol-7-yl)pyrazin-2-yl)-2-(3,5-difluorophenyl)ethyl)-2-((3bS,4aR)-3-(difluoromethyl)-5,5-difluoro-3b,4,4a,5-tetrahydro-1H-cyclopropa[3,4]cyclopenta[1,2-c]pyrazol-1-yl)acetamide] are 75% and above 53.2 µM.
On to `CC(=O)Nc1cc(-c2ccc(Cl)c3c(NS(C)(=O)=O)nn(C)c23)c([C@H](Cc2cc(F)cc(F)c2)NC(=O)Cn2nc(C(F)F)c3c2C(F)(F)[C@@H]2C[C@H]32)nc1C` [Compound 48, N—((S)-1-(5-acetamido-3-(4-chloro-1-methyl-3-(methylsulfonamido)-1H-indazol-7-yl)-6-methylpyridin-2-yl)-2-(3,5-difluorophenyl)ethyl)-2-((3bS,4aR)-3-(difluoromethyl)-5,5-difluoro-3b,4,4a,5-tetrahydro-1H-cyclopropa[3,4]cyclopenta[1,2-c]pyrazol-1-yl)acetamide], for which the inhibition at 3 µM in data set [1] was found to be 93%. This compound also returned a CC50 at 5 days in data set [2] of 20.7 µM.
The matching figures for `Cc1nc([C@H](Cc2cc(F)cc(F)c2)NC(=O)Cn2nc(C(F)(F)F)c3c2C(F)(F)[C@@H]2C[C@H]32)c(-c2cccc3c(NS(C)(=O)=O)nn(C)c23)cc1N` [Compound 45, N—((S)-1-(5-amino-6-methyl-3-(1-methyl-3-(methylsulfonamido)-1H-indazol-7-yl)pyridin-2-yl)-2-(3,5-difluorophenyl)ethyl)-2-((3bS,4aR)-5,5-difluoro-3-(trifluoromethyl)-3b,4,4a,5-tetrahydro-1H-cyclopropa[3,4]cyclopenta[1,2-c]pyrazol-1-yl)acetamide]: 110% and 21.5 µM.
In the same order, the values of `Cn1nc(NS(C)(=O)=O)c2c(Cl)ccc(-c3cc(N)c(Cl)nc3[C@H](Cc3cc(F)cc(F)c3)NC(=O)Cn3nc(C(F)F)c4c3C(F)(F)[C@@H]3C[C@H]43)c21` [Compound 53B, N—((S)-1-(5-amino-6-chloro-3-(4-chloro-1-methyl-3-(methylsulfonamido)-1H-indazol-7-yl)pyridin-2-yl)-2-(3,5-difluorophenyl)ethyl)-2-((3bS,4aR)-3-(difluoromethyl)-5,5-difluoro-3b,4,4a,5-tetrahydro-1H-cyclopropa[3,4]cyclopenta[1,2-c]pyrazol-1-yl)acetamide] are 91% and 15 µM.
The matching figures for `Cn1nc(NS(C)(=O)=O)c2cccc(-c3cnc(N4CC5(COC5)C4)nc3[C@H](Cc3cc(F)cc(F)c3)NC(=O)Cn3nc(C(F)(F)F)c4c3C(F)(F)[C@@H]3C[C@H]43)c21` [Compound 37, 2-((3bS,4aR)-5,5-difluoro-3-(trifluoromethyl)-3b,4,4a,5-tetrahydro-1H-cyclopropa[3,4]cyclopenta[1,2-c]pyrazol-1-yl)-N—((S)-2-(3,5-difluorophenyl)-1-(5-(1-methyl-3-(methylsulfonamido)-1H-indazol-7-yl)-2-(2-oxa-6-azaspiro[3.3]heptan-6-yl)pyrimidin-4-yl)ethyl)acetamide]: 95% and 34 µM.
On to `Cn1nc(NS(C)(=O)=O)c2cccc(-c3ccc(N4CC(C)(O)C4)nc3[C@H](Cc3cc(F)cc(F)c3)NC(=O)Cn3nc(C(F)F)c4c3C(F)(F)[C@@H]3C[C@H]43)c21` [Compound 42K, 2-((3bS,4aR)-3-(difluoromethyl)-5,5-difluoro-3b,4,4a,5-tetrahydro-1H-cyclopropa[3,4]cyclopenta[1,2-c]pyrazol-1-yl)-N—((S)-2-(3,5-difluorophenyl)-1-(6-(3-hydroxy-3-methylazetidin-1-yl)-3-(1-methyl-3-(methylsulfonamido)-1H-indazol-7-yl)pyridin-2-yl)ethyl)acetamide], for which, in data set [1], the inhibition at 3 µM was 92%. Moreover, the CC50 at 5 days in data set [2] is 18.9 µM.
As for `Cn1nc(NS(C)(=O)=O)c2c(Cl)ccc(-c3nc(N)cnc3C(Cc3cc(F)cc(F)c3)NC(=O)Cn3nc(C(F)F)c4c3C(F)(F)[C@@H]3C[C@H]43)c21` (stereo partly drawn) [Compound 59D, N-(1-(5-amino-3-(4-chloro-1-methyl-3-(methylsulfonamido)-1H-indazol-7-yl)pyrazin-2-yl)-2-(3,5-difluorophenyl)ethyl)-2-((3bS,4aR)-3-(difluoromethyl)-5,5-difluoro-3b,4,4a,5-tetrahydro-1H-cyclopropa[3,4]cyclopenta[1,2-c]pyrazol-1-yl)acetamide], the inhibition at 3 µM in data set [1] was found to be 85%. In data set [2], the CC50 at 5 days was above 46.8 µM.
The matching figures for `CN(CCO)c1ccc(-c2ccc(Cl)c3c(NS(C)(=O)=O)nn(C)c23)c([C@H](Cc2cc(F)cc(F)c2)NC(=O)Cn2nc(C(F)F)c3c2C(F)(F)[C@@H]2C[C@H]32)n1` [Compound 57G, N—((S)-1-(3-(4-chloro-1-methyl-3-(methylsulfonamido)-1H-indazol-7-yl)-6-((2-hydroxyethyl)(methyl)amino)pyridin-2-yl)-2-(3,5-difluorophenyl)ethyl)-2-((3bS,4aR)-3-(difluoromethyl)-5,5-difluoro-3b,4,4a,5-tetrahydro-1H-cyclopropa[3,4]cyclopenta[1,2-c]pyrazol-1-yl)acetamide]: 81% and 29.5 µM.
Turning to `Cn1nc(NS(C)(=O)=O)c2c(Cl)ccc(-c3ccc(NCCO)nc3[C@H](Cc3cc(F)cc(F)c3)NC(=O)Cn3nc(C(F)(F)F)c4c3C(F)(F)[C@@H]3C[C@H]43)c21` [Compound 56], in data set [1], the inhibition at 3 µM came to 95%. Further, in data set [2], the midpoint of cytotoxicity, the CC50 at 5 days, lay at 24.3 µM.
